Source: US6770632B1, “Folypolyglutamyl synthetase gene transfer to enhance antifolate” (priority 1999, dated 2004)
Like-named read-outs stand apart in the source and are kept apart here.

Experiments:
[1] = tested on: cocultures with nitroreductase-expressing cells; settings: cited from earlier work
9L cells = assay: [3H]MTX accumulation and thin layer chromatography of MTX polyglutamates in 9L cells; settings: 24 hour exposure to 2 μM MTX, TLC
Protocol: (§1) Thin Layer Chromatography of MTX Metabolites: 10^6 9L or 9L/FPGS cells were plated in 6-cm diameter dishes and allowed to adhere for 4 hours, after which cells were incubated overnight with 2 μM 3′, 5′, 7-[^3H] methotrexate (Moravek Biochemicals; Brea, Calif.). Cells were then trypsinized, centrifuged, resuspended in 300 μL deionized water, and sonicated for 45 seconds at half-maximal power. Sonicated cells were centrifuged briefly to remove cellular debris, after which protein concentration was calculated using the Bradford protein assay. Proteins were precipitated with 1 mL methanol at −20° C. for 2 hr. Precipitated proteins were removed by centrifugation at 20,000 g for 30 min, and the supernatant was then concentrated to 30 μL under a stream of N2 at 37° C. on a Meyer N-Evap Analytical Evaporator (Organomation Associates Inc., Northborough, Mass.). A 1 μL aliquot was scintillation counted—cpm were converted into moles of drug taken up by determining the cpm of a known quantity of [^3H] MTX. […] Plates were eluted with a chloroforrn-methanol-acetic acid mixture (2:2:1) containing 20 mg/mL cetyl trimethylammonium bromide (Sigma). Following elution, the plates were placed under ordinary fluorescent light for 2 days, after which 20 nmol unlabelled standards were visualized under long-wave ultraviolet light. Plates were run in duplicate and the average RF values of the standards were: MTX=0.66; MTX-G1=0.59; MTX-G2=0.44, MTX-G3=0.33; MTX-G4=0.27; MTX-G5=0.25. Regions corresponding to where standards migrated were marked in the sample lane, scraped individually into scintillation vials, and counted. The amount of each radioactive metabolite in a sample lane was determined as a percentage of the total radioactivity recovered from that sample lane, after subtraction of the background counts obtained from lanes lacking radioactive sample.

9L/FPGS cells = assay: [3H]MTX accumulation and thin layer chromatography of MTX polyglutamates in 9L/FPGS cells; settings: 24 hour exposure to 2 μM MTX, TLC
Protocol: as §1

SMILES	POLYGLUTAMATE DISTRIBUTION (percentages of total sample lane radioactivity) (9L cells) [%]	POLYGLUTAMATE DISTRIBUTION (percentages of total sample lane radioactivity) (9L/FPGS cells) [%]	TE values ([1]; 1% cocultures)	TE values ([1]; 10% cocultures)
NC(=O)c1cc(N2CC2)c([N+](=O)[O-])cc1[N+](=O)[O-] [CB1954]			above 50%	above 70%
CN(Cc1cnc2nc(N)nc(N)c2n1)c1ccc(C(=O)NC(CCC(=O)NC(CCC(=O)NC(CCC(=O)NC(CCC(=O)O)C(=O)O)C(=O)O)C(=O)O)C(=O)O)cc1 (stereo not drawn) [MTX-G3]	13	18		
CN(Cc1cnc2nc(N)nc(N)c2n1)c1ccc(C(=O)NC(CCC(=O)NC(CCC(=O)O)C(=O)O)C(=O)O)cc1 (stereo not drawn) [MTX-G1]	29	22		
CN(Cc1cnc2nc(N)nc(N)c2n1)c1ccc(C(=O)NC(CCC(=O)NC(CCC(=O)NC(CCC(=O)O)C(=O)O)C(=O)O)C(=O)O)cc1 (stereo not drawn) [MTX-G2]	15	19		

Further lines, with some results ahead:

POLYGLUTAMATE DISTRIBUTION (percentages of total sample lane radioactivity) (9L cells) [%]	POLYGLUTAMATE DISTRIBUTION (percentages of total sample lane radioactivity) (9L/FPGS cells) [%]	SMILES	TE values ([1]; 1% cocultures)	TE values ([1]; 10% cocultures)
1	3	CN(Cc1cnc2nc(N)nc(N)c2n1)c1ccc(C(=O)NC(CCC(=O)NC(CCC(=O)NC(CCC(=O)NC(CCC(=O)NC(CCC(=O)NC(CCC(=O)O)C(=O)O)C(=O)O)C(=O)O)C(=O)O)C(=O)O)C(=O)O)cc1 (stereo not drawn) [MTX-G5]		
13	28	CN(Cc1cnc2nc(N)nc(N)c2n1)c1ccc(C(=O)NC(CCC(=O)NC(CCC(=O)NC(CCC(=O)NC(CCC(=O)NC(CCC(=O)O)C(=O)O)C(=O)O)C(=O)O)C(=O)O)C(=O)O)cc1 (stereo not drawn) [MTX-G4]		
